Source: patent publication US20240025858A1, “CANNABINOID DERIVATIVES AS […] ACTIVE COMPOUNDS AND METHOD OF PREPARATION THEREOF” (GW Research Limited, priority 2020, published 2024)

Experiments:
[1] = tested on: mouse model of generalised seizure; test: mini-MEST (maximal electroshock seizure threshold test, minimal sample sizes) in the mouse; settings: for change in vivo at 5 mg/kg / change in vivo at 50 mg/kg: Mus musculus, ip, change in CC50; for change in vivo at 5 mg/kg: 0.25 h, read-out: % change from vehicle, 5 mg/kg i.p., 15 min post dose; for change in vivo at 50 mg/kg: 0.5 h, read-out: % change from vehicle, 50 mg/kg i.p., 30 min post dose
Protocol: In the MEST test the ability of a drug to alter the seizure threshold current required to induce hind limb tonic extensor convulsions is measured according to an “up and down” method of shock titration (Kimball et al., 1957).
The ability of a test compound to alter the stimulus intensity, expressed as current (mA), required to induce the presence of tonic hind limb extensor convulsions, is assessed in the MEST.
Naïve mice were acclimatised to the procedure room in their home cages for up to 7 days, with food and water available ad libitum.
All animals were weighed at the beginning of the study and randomly assigned to treatment groups based on a mean distribution of body weight across groups.
The first animal within a treatment group was given a shock at the expected or estimated CC50 current. For subsequent animals, the current was lowered or raised depending on the convulsions outcome from the preceding animal in log scale intervals.
Data generated from each treatment group were used to calculate the CC50 ±SEM values for the treatment group.
The test compounds used were 1, 2, 3, 4 and 5. Test compounds were administered at 5-50 mg/kg (i.p.) in a 1:2:17 ethanol:solutol:saline formulation.
The data for each treatment group were recorded as the number of +'s and 0's at each current level employed and this information is then used to calculate the CC50 value (current required for 50% of the animals to show seizure behaviour) ±standard error.
Test compound effects were also calculated as percentage change in CC50 from the vehicle control group.
The test compounds used were 12, 42 and 43. Test compounds were administered at 5-50 mg/kg (i.p.) in a 1:2:17 ethanol:solutol:saline formulation.
The test compounds used were 6, 13, 22, 26, 28, 33, 38 and 46. Test compounds were administered at 5-50 mg/kg (i.p.) in a 1:2:17 ethanol:solutol:saline formulation.
The test compound used was 36. Test compound was administered at 5 and 50 mg/kg (i.p.) in a 1:2:17 ethanol:solutol:saline formulation.

[2] = tested on: mouse model of generalised seizure; test: MEST (maximal electroshock seizure threshold) test in the mouse; settings: for % change from vehicle: change in CC50
Protocol: The efficacy of the cannabinoid derivative of 1 was tested in a mouse model of generalised seizure, the maximal electroshock seizure threshold (MEST) test.
The protocol according to Example 2 was followed, with the current lowered or raised in intervals of 5 mA instead of log scale intervals.

[3] = 5 mg/kg i.p., test 15 min post dose
[4] = 50 mg/kg i.p., test 30 min post dose

SMILES: C=C(C)[C@@H]1CCC(C)=C[C@H]1c1c(O)cc(-c2cn(C)nc2C)cc1O [Compound 3, (1′R,2′R)-4-(1,3-Dimethyl-1H-pyrazol-4-yl)-5′-methyl-2′-(prop-1-en-2-yl)-1′,2′,3′,4′-tetrahydro-[1,1′-biphenyl]-2,6-diol]
- CC50 +/− SEM [1, 3]: 27.5 mA
- CC50 +/− SEM [1, 4]: 62.5 mA
- change in vivo at 5 mg/kg [1]: 10%
- change in vivo at 50 mg/kg [1]: 150%

SMILES: C=C(C)[C@@H]1CCC(C)=C[C@H]1c1c(O)cc(-c2ccn(C)c(=O)c2)cc1O [Compound 42, 4-((1′R,2′R)-2,6-dihydroxy-5′-methyl-2′-(prop-1-en-2-yl)-1′,2′,3′,4′-tetrahydro-[1,1′-biphenyl]-4-yl)-1-methylpyridin-2(1H)-one]
- CC50 +/− SEM [1, 4]: 67.5 mA
- change in vivo at 50 mg/kg [1]: 132%

SMILES: C=C(C)[C@@H]1CCC(C)=C[C@H]1c1c(O)cc(-c2cnn(CCO)c2)cc1O [Compound 2, (1′R,2′R)-4-(1-(2-Hydroxyethyl)-1H-pyrazol-4-yl)-5′-methyl-2′-(prop-1-en-2-yl)-1′,2′,3′,4′-tetrahydro-[1,1′-biphenyl]-2,6-diol]
- CC50 +/− SEM [1, 3]: 32.5 mA
- CC50 +/− SEM [1, 4]: <35.0 mA
- change in vivo at 5 mg/kg [1]: 30%
- change in vivo at 50 mg/kg [1]: < 40%

SMILES: C=C(C)[C@@H]1CCC(C)=C[C@H]1c1c(O)cc(-c2cnn(CCO)c2C)cc1O [Compound 5, (1′R,2′R)-4-(1-(2-Hydroxyethyl)-5-methyl-1H-pyrazol-4-yl)-5′-methyl-2′-(prop-1-en-2-yl)-1′,2′,3′,4′-tetrahydro-[1,1′-biphenyl]-2,6-diol]
- CC50 +/− SEM [1, 4]: 60.5 mA
- change in vivo at 50 mg/kg [1]: 169%

SMILES: C=C(C)[C@@H]1CCC(C)=C[C@H]1c1c(O)cc(-c2cnn(CC(C)O)c2)cc1O (stereo partly drawn) [Compound 22, (1′R,2′R)-4-(1-(2-Hydroxypropyl)-1H-pyrazol-4-yl)-5′-methyl-2′-(prop-1-en-2-yl)-1′,2′,3′,4′-tetrahydro-[1,1′-biphenyl]-2,6-diol]
- CC50 +/− SEM [1, 3]: 33.0 mA
- CC50 +/− SEM [1, 4]: 66.0 mA
- change in vivo at 5 mg/kg [1]: 25%
- change in vivo at 50 mg/kg [1]: 149%

SMILES: C=C(C)[C@@H]1CCC(C)=C[C@H]1c1c(O)cc(-c2cnn(CCN(C)C)c2)cc1O [Compound 6, (1′R,2′R)-4-(1-(2-(Dimethylamino)ethyl)-1H-pyrazol-4-yl)-5′-methyl-2′-(prop-1-en-2-yl)-1′,2′,3′,4′-tetrahydro-[1,1′-biphenyl]-2,6-diol]
- CC50 +/− SEM [1, 4]: <43 mA
- change in vivo at 50 mg/kg [1]: < 76%

SMILES: C=C(C)[C@@H]1CCC(C)=C[C@H]1c1c(O)cc(-c2cnn(C3COC3)c2)cc1O [Compound 38, (1′R,2′R)-5′-Methyl-4-(1-(oxetan-3-yl)-1H-pyrazol-4-yl)-2′-(prop-1-en-2-yl)-11,2′,3′,4′-tetrahydro-[1, 1′-biphenyl]-2,6-diol]
- CC50 +/− SEM [1, 4]: 79.5 mA
- change in vivo at 50 mg/kg [1]: 200%

SMILES: C=C(C)[C@@H]1CCC(C)=C[C@H]1c1c(O)cc(-c2cn(C)cn2)cc1O [Compound 28, (1′R,2′R)-5′-Methyl-4-(1-methyl-1H-imidazol-4-yl)-2′-(prop-1-en-2-yl)-1′,2′,3′,4′-tetrahydro-[1,1′-biphenyl]-2,6-diol]
- CC50 +/− SEM [1, 3]: 25.0 mA
- CC50 +/− SEM [1, 4]: 35.5 mA
- change in vivo at 5 mg/kg [1]: 11%
- change in vivo at 50 mg/kg [1]: 58%

SMILES: CN1C(=O)CN=C(c2ccccc2)c2cc(Cl)ccc21 [Diazepam, diazepam, reference compound]
- % change from vehicle ([2]; diazepam 2.5 mg/kg i.p., 30 min post dose): 224%

SMILES: C=C(C)[C@@H]1CCC(C)=C[C@H]1c1c(O)cc(-c2cccnc2OC)cc1O [Compound 43, (1′R,2′R)-4-(2-methoxypyridin-3-yl)-5′-methyl-2′-(prop-1-en-2-yl)-1′,2′,3′,4′-tetrahydro-[1,1′-biphenyl]-2,6-diol]
- CC50 +/− SEM [1, 4]: 58.2 mA
- change in vivo at 50 mg/kg [1]: 96%

SMILES: C=C(C)[C@@H]1CCC(C)=C[C@H]1c1c(O)cc(-c2cnn(CC(C)(C)O)c2)cc1O [Compound 1, (1′R,2′R)-4-(1-(2-Hydroxy-2-methylpropyl)-1H-pyrazol-4-yl)-5′-methyl-2′-(prop-1-en-2-yl)-1′,2′,3′,4′-tetrahydro-[1,1′-biphenyl]-2,6-diol]
- % change from vehicle ([2]; 1 mg/kg i.p., 15 min post dose): 10%
- CC50 +/− SEM ([2]; 1 mg/kg i.p., test 15 min post dose): 28.5 mA
- % change from vehicle ([2]; 5 mg/kg i.p., 15 min post dose): 21%
- CC50 +/− SEM [2, 3]: 31.5 mA
- % change from vehicle ([2]; 50 mg/kg i.p., 30 min post dose): 213%
- CC50 +/− SEM [2, 4]: 81.5 mA
- CC50 +/− SEM [1, 4]: 119.5 mA
- change in vivo at 50 mg/kg [1]: 388%

SMILES: C=C(C)[C@@H]1CCC(C)=C[C@H]1c1c(O)cc(-c2cn(C)nn2)cc1O [Compound 4, (1′R,2′R)-5′-Methyl-4-(1-methyl-1H-1,2,3-triazol-4-yl)-2′-(prop-1-en-2-yl)-1′,2′,3′,4′-tetrahydro-[1, 1′-biphenyl]-2,6-diol]
- CC50 +/− SEM [1, 3]: 28.3 mA
- CC50 +/− SEM [1, 4]: 70.5 mA
- change in vivo at 5 mg/kg [1]: 26%
- change in vivo at 50 mg/kg [1]: 213%

SMILES: CC1=C[C@@H](c2c(O)cc(-c3cnn(C)c3)cc2O)[C@H](C(C)C)CC1 [Compound 36, (1′S,2′S)-2′-Isopropyl-5′-methyl-4-(1-methyl-1H-pyrazol-4-yl)-1′,2′,3′,4′-tetrahydro-[1,1′-biphenyl]-2,6-diol]
- CC50 +/− SEM [1, 3]: 29.0 mA
- CC50 +/− SEM [1, 4]: 70.5 mA
- CC50 value compared to vehicle ([1]; 5 and 50 mg/kg i.p., between 15 and 30 minutes before the test): statistically significant
- change in vivo at 5 mg/kg [1]: 14%
- change in vivo at 50 mg/kg [1]: 176%

SMILES: C=C(C)[C@@H]1CCC(C)=C[C@H]1c1c(O)cc(-c2cnn(CCN3CCOCC3)c2)cc1O [Compound 13, (1′R,2′R)-5′-Methyl-4-(1-(2-morpholinoethyl)-1H-pyrazol-4-yl)-2′-(prop-1-en-2-yl)-1′,2′,3′,4′-tetrahydro-[1,1′-biphenyl]-2,6-diol]
- CC50 +/− SEM [1, 3]: 25.0 mA
- CC50 +/− SEM [1, 4]: 37.2 mA
- change in vivo at 5 mg/kg [1]: 6%
- change in vivo at 50 mg/kg [1]: 58%

SMILES: C=C(C)[C@@H]1CCC(C)=C[C@H]1c1c(O)cc(-c2ccc(OC)nc2)cc1O [Compound 12, (1′R,2′R)-4-(6-Methoxypyridin-3-yl)-5′-methyl-2′-(prop-1-en-2-yl)-1′,2′,3′,4′-tetrahydro-[1,1′-biphenyl]-2,6-diol]
- CC50 +/− SEM [1, 3]: 25.0 mA
- CC50 +/− SEM [1, 4]: >131 mA
- convulsions observed ([1]; 50 mg/kg, CC50 not reached): no animals had any convulsions
- change in vivo at 5 mg/kg [1]: -6%
- change in vivo at 50 mg/kg [1]: > 394%

SMILES: C=C(C)[C@@H]1CCC(C)=C[C@H]1c1c(O)cc(-c2ncn(C)n2)cc1O [Compound 33, (1′R,2′R)-5′-Methyl-4-(1-methyl-1H-1,2,4-triazol-3-yl)-2′-(prop-1-en-2-yl)-1′,2′,3′,4′-tetrahydro-[1, 1′-biphenyl]-2,6-diol]
- CC50 +/− SEM [1, 4]: 53.5 mA
- change in vivo at 50 mg/kg [1]: 138%

SMILES: C=C(C)[C@@H]1CCC(C)=C[C@H]1c1c(O)cc(N(C)c2cccnc2)cc1O [Compound 46, (1′R,2′R)-5′-Methyl-4-(methyl(pyridin-3-yl)amino)-2′-(prop-1-en-2-yl)-1′,2′,3′,4′-tetrahydro-[1, 1′-biphenyl]-2,6-diol]
- CC50 +/− SEM [1, 4]: 61.5 mA
- change in vivo at 50 mg/kg [1]: 132%

SMILES: C=C(C)[C@@H]1CCC(C)=C[C@H]1c1c(O)cc(-n2cnc(C)n2)cc1O [Compound 26, (1′R,2′R)-5′-Methyl-4-(3-methyl-1H-1,2,4-triazol-1-yl)-2′-(prop-1-en-2-yl)-1′,2′,3′,4′-tetrahydro-[1,1′-biphenyl]-2,6-diol]
- CC50 +/− SEM [1, 4]: 75.0 mA
- change in vivo at 50 mg/kg [1]: 233%
